PubChem BioAssay AID330 (DTP/NCI, 2004)
Toxic doses and inconclusive results are not listed. How the source made its calls: active means survival T/C of 150% or more; inactive means T/C below 125% in these data. Peptide text beside a SMILES is read from it. * marks the point of attachment. Trt = c1ccc(C(c2ccccc2)(c2ccccc2)*)cc1; Cbz = O=C(OCc1ccccc1)*; OtBu = CC(C)(C)O*

Tested on: P388 leukemia ip, CD2F1 mice, survival T/C
Test: NCI In Vivo Anticancer Drug Screen. Data for tumor model P388 Leukemia (intraperitoneal) in CD2F1 (CDF1) mice
Settings: endpoint: median survival time, higher = longer survival
Procedure, shortened: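 Mice carrying the transplanted tumor received test compound or vehicle. Survival was recorded in each group, and the value is the treated-group measurement divided by that of the vehicle-treated control group.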

[1] = dose: 6.25 mg/kg/injection, schedule: Q01DX005 (ip), vehicle: saline with Tween-80
[2] = dose: 12.5 mg/kg/injection, schedule: Q01DX005 (ip), vehicle: saline with Tween-80
[3] = dose: 25.0 mg/kg/injection, schedule: Q01DX005 (ip), vehicle: saline with Tween-80
[4] = dose: 50.0 mg/kg/injection, schedule: Q01DX005 (ip), vehicle: saline with Tween-80
[5] = dose: 100.0 mg/kg/injection, schedule: Q01DX005 (ip), vehicle: saline with Tween-80
[6] = dose: 200.0 mg/kg/injection, schedule: Q01DX005 (ip), vehicle: saline with Tween-80
[7] = dose: 12.5 mg/kg/injection, schedule: Q01DX009 (ip), vehicle: saline with Tween-80
[8] = dose: 25.0 mg/kg/injection, schedule: Q01DX009 (ip), vehicle: saline with Tween-80
[9] = dose: 50.0 mg/kg/injection, schedule: Q01DX009 (ip), vehicle: saline with Tween-80
[10] = dose: 100.0 mg/kg/injection, schedule: Q01DX009 (ip), vehicle: saline with Tween-80
[11] = dose: 200.0 mg/kg/injection, schedule: Q01DX009 (ip), vehicle: saline with Tween-80
[12] = dose: 50.0 mg/kg/injection, schedule: Q01DX009 (ip), vehicle: saline

Measured: T/C

COc1cc(O)c(C(C)c2ccccc2)cc1N=NC(N)=O (stereo unspecified)
inactive: [1] 96 % of control | [2] 90 % of control | [3] 89 % of control

CCCCCCc1cc(-c2cc(CCCCCC)nc(N)n2)nc(N)n1
inactive: dose: 60.0 mg/kg/injection, schedule: Q01DX005 (ip), vehicle: saline 100 % of control | dose: 120.0 mg/kg/injection, schedule: Q01DX005 (ip), vehicle: saline 115 % of control

O=C1CN(c2cccc(Cl)c2)C(=O)CN1/N=C/c1ccc[nH]1
inactive: [4] 92 % of control | [5] 102 % of control | [6] 90 % of control

O=C(NC(=S)Nc1ncn[nH]1)c1ccc(Cl)c(Cl)c1
inactive: [7] 104 % of control | [8] 100 % of control | [9] 95 % of control | [10] 91 % of control | [11] 92 % of control

O=C1NC(=O)C2CCC12 (stereo unspecified)
inactive: [9] 100 % of control | [10] 100 % of control | [11] 100 % of control

CCOc1cc2c(OCc3ccccc3)cc3c4cc(OC)c(OC)cc4c[n+](C)c3c2cc1OC
inactive: dose: 3.12 mg/kg/injection, schedule: Q01DX005 (ip), vehicle: saline with Tween-80 118 % of control | [1] 112 % of control | [2] 91 % of control

Cc1ccccc1N1C(=O)CSC1=S
inactive: [7] 105 % of control | [8] 95 % of control | [9] 105 % of control

CC(=O)OCC1OC(n2ccc(=S)[nH]c2=O)C(OC(C)=O)C1OC(C)=O (stereo unspecified)
inactive: dose: 50.0 mg/kg/injection, schedule: Q04DX003 (ip), vehicle: saline with Tween-80 93 % of control | dose: 100.0 mg/kg/injection, schedule: Q04DX003 (ip), vehicle: saline with Tween-80 100 % of control | dose: 200.0 mg/kg/injection, schedule: Q04DX003 (ip), vehicle: saline with Tween-80 92 % of control | dose: 400.0 mg/kg/injection, schedule: Q04DX003 (ip), vehicle: saline with Tween-80 102 % of control

CSC(=S)NN=C(c1ccccn1)c1ccccn1
inactive: dose: 6.25 mg/kg/injection, schedule: Q01DX009 (ip), vehicle: saline with Tween-80 96 % of control | [7] 99 % of control | [8] 92 % of control | [10] 91 % of control | [11] 88 % of control

C=CCC1(C(C)C(O)c2cc(OC)c(OC)c(OC)c2)CC(OC)C=CC1=O (stereo unspecified)
inactive: dose: 4.0 mg/kg/injection, schedule: Q01DX009 (ip), vehicle: olive oil, sesame oil, peanut oil 116 % of control | dose: 8.0 mg/kg/injection, schedule: Q01DX009 (ip), vehicle: olive oil, sesame oil, peanut oil 111 % of control | dose: 16.0 mg/kg/injection, schedule: Q01DX009 (ip), vehicle: olive oil, sesame oil, peanut oil 111 % of control

Cc1ccc(N=NC2=C3Sc4ccccc4N=C2N(c2ccc(Br)cc2)C(=S)N3c2ccc(Cl)cc2)cc1
inactive: [4] 102 % of control | [5] 90 % of control | [6] 88 % of control

CC1=Nc2cc(N)nn2C(=O)C1
inactive: [3] 93 % of control | [4] 96 % of control | [5] 102 % of control | [6] 93 % of control

[N-]=[N+]=Nc1ccccc1C(=O)Nc1ccccc1C(N)=O
inactive: dose: 100.0 mg/kg/injection, schedule: Q04DX002 (ip), vehicle: Klucel (hydroxypropylcellulose) (HPC) 101 % of control | dose: 200.0 mg/kg/injection, schedule: Q04DX002 (ip), vehicle: Klucel (hydroxypropylcellulose) (HPC) 104 % of control | dose: 400.0 mg/kg/injection, schedule: Q04DX002 (ip), vehicle: Klucel (hydroxypropylcellulose) (HPC) 104 % of control

O=C(/C=C/c1c[nH]c2ccccc12)c1cccc([N+](=O)[O-])c1
inactive: dose: 60.0 mg/kg/injection, schedule: Q01DX005 (ip), vehicle: saline with Tween-80 97 % of control | dose: 120.0 mg/kg/injection, schedule: Q01DX005 (ip), vehicle: saline with Tween-80 94 % of control | dose: 240.0 mg/kg/injection, schedule: Q01DX005 (ip), vehicle: saline with Tween-80 92 % of control

CC1(C)NC2Cc3c([nH]c4ccccc34)C3(C)CCC1CC23 (stereo unspecified)
inactive: dose: 12.5 mg/kg/injection, schedule: Q01DX005 (ip), vehicle: Klucel (hydroxypropylcellulose) (HPC) 94 % of control | dose: 25.0 mg/kg/injection, schedule: Q01DX005 (ip), vehicle: Klucel (hydroxypropylcellulose) (HPC) 94 % of control | dose: 50.0 mg/kg/injection, schedule: Q01DX005 (ip), vehicle: Klucel (hydroxypropylcellulose) (HPC) 89 % of control | dose: 100.0 mg/kg/injection, schedule: Q01DX005 (ip), vehicle: Klucel (hydroxypropylcellulose) (HPC) 108 % of control

CN(C)c1ccc(/C=C/c2ccnc3ccccc23)c(F)c1
inactive: [12] 86 % of control | dose: 100.0 mg/kg/injection, schedule: Q01DX009 (ip), vehicle: saline 92 % of control | dose: 200.0 mg/kg/injection, schedule: Q01DX009 (ip), vehicle: saline 86 % of control

CC(C)(Oc1ccc(Cl)cc1)C(=O)NC(CS(C)(=O)=O)C(=O)O (stereo unspecified)
inactive: dose: 50.0 mg/kg/injection, schedule: Q01DX005 (ip), vehicle: saline 99 % of control | dose: 100.0 mg/kg/injection, schedule: Q01DX005 (ip), vehicle: saline 99 % of control | dose: 200.0 mg/kg/injection, schedule: Q01DX005 (ip), vehicle: saline 100 % of control

COC(=O)c1ccc(/C=C/C(=O)c2ccc(C(=O)OC)cc2)cc1
inactive: dose: 100.0 mg/kg/injection, schedule: Q01DX001 (ip), vehicle: saline with Tween-80 106 % of control | dose: 200.0 mg/kg/injection, schedule: Q01DX001 (ip), vehicle: saline with Tween-80 101 % of control | dose: 400.0 mg/kg/injection, schedule: Q01DX001 (ip), vehicle: saline with Tween-80 98 % of control

CN1CCC2=C(C1)C(c1ccccc1)c1ccccc12 (stereo unspecified)
inactive: dose: 33.0 mg/kg/injection, schedule: Q01DX009 (ip), vehicle: saline 107 % of control | [12] 104 % of control | dose: 75.0 mg/kg/injection, schedule: Q01DX009 (ip), vehicle: saline 107 % of control

Cn1c(=S)sc2ccc(S(=O)(=O)C(F)F)cc21
inactive: dose: 25.0 mg/kg/injection, schedule: Q01DX009 (ip), vehicle: Klucel (hydroxypropylcellulose) (HPC) 103 % of control | dose: 50.0 mg/kg/injection, schedule: Q01DX009 (ip), vehicle: Klucel (hydroxypropylcellulose) (HPC) 112 % of control | dose: 100.0 mg/kg/injection, schedule: Q01DX009 (ip), vehicle: Klucel (hydroxypropylcellulose) (HPC) 107 % of control | dose: 200.0 mg/kg/injection, schedule: Q01DX009 (ip), vehicle: Klucel (hydroxypropylcellulose) (HPC) 108 % of control

CC(=O)Nc1ccc2c(C)ccnc2c1
inactive: dose: 50.0 mg/kg/injection, schedule: Q01DX009 (ip), vehicle: distilled water + alcohol 103 % of control | dose: 100.0 mg/kg/injection, schedule: Q01DX009 (ip), vehicle: distilled water + alcohol 104 % of control | dose: 200.0 mg/kg/injection, schedule: Q01DX009 (ip), vehicle: distilled water + alcohol 105 % of control

NC(=O)C12CCCCC1CCC(=O)C2 (stereo unspecified)
inactive: dose: 2.5 mg/kg/injection, schedule: Q01DX009 (ip), vehicle: saline 100 % of control | dose: 5.0 mg/kg/injection, schedule: Q01DX009 (ip), vehicle: saline 100 % of control | dose: 10.0 mg/kg/injection, schedule: Q01DX009 (ip), vehicle: saline 100 % of control

CC(C)CC(NC(=O)C(CSC(c1ccccc1)(c1ccccc1)c1ccccc1)NC(=O)OCc1ccccc1)C(=O)NC(C(=O)OC(C)(C)C)C(C)C (stereo not drawn) (Cbz-Cys(Trt)-Leu-Val-OtBu; configuration not given here)
inactive: dose: 60.0 mg/kg/injection, schedule: Q01DX005 (ip), vehicle: Klucel (hydroxypropylcellulose) (HPC) 96 % of control | dose: 120.0 mg/kg/injection, schedule: Q01DX005 (ip), vehicle: Klucel (hydroxypropylcellulose) (HPC) 100 % of control | dose: 240.0 mg/kg/injection, schedule: Q01DX005 (ip), vehicle: Klucel (hydroxypropylcellulose) (HPC) 107 % of control
